The values below come from patent US20030171544A1, “Alcohol dehydrogenase and use thereof” (DEGUSSA AG, priority 2001, published 2003).

Marks after values point to notes of the source that are not given here.

In the assay the test system is alcohol dehydrogenase (ADHF1). The assay can be described thus: Reduction of ketones with lyophilized recombinant ADHF1 crude extract, GC analysis. The class given is biochemical, Pseudomonas fluorescens (DSM 50106). The following applies: for Conversion: Table 1, GC analysis, 6.4 μmol substrate, 1.25 mg enzyme crude extract, 0.1 M Tris pH 8.0, 20% (v/v) isopropanol, room temperature, time 20-21 h. Here is the method:
The activity of lyophilized alcohol dehydrogenase is determined using acetophenone as model substrate. The standardized reaction mixture (250 μl) contains 6.4 μmol of substrate dissolved in isopropanol, 1.25 mg of enzyme (crude extract) in 0.1 M Tris buffer (pH 8.0) and 20% (v/v) isopropanol as substrate for NADH-recycling dehydrogenase. The reactions are carried out at room temperature, unless explicitly stated otherwise. All values were determined three times. After the reaction has finished, the reaction mixture is extracted with twice the amount of chloroform and the organic phase is then dried over sodium sulfate. The reaction products were analyzed isothermally at 120° C. by GC measurements (Shimadzu GC 14A, Tokyo, flame ionization detector, integrator C5RA) using a chiral column (heptakis (2,6-O-methyl-3-O-pentyl)-β-cyclodextrin, 25m×0.25mm ID, Macherey & Nagel, Düren). The retention times are 1.55 min for acetophenone, 2.77 min for (R)-α-phenylethanol and 2.99 min for (S)-α-phenylethanol. The absolute configuration was determined by using commercial standards. Further GC analyses were carried out at a temperature rising from 90° C. to 120° C. at a rate of 5° C./min. Here the retention times were 0.95 min for cyclopentanone, 1.37 min for cyclopentanol, 2.85 min for cycloheptanone, 4.29 min for cycloheptanol, 1.42 min for cyclohexanone and 2.12 min for cyclohexanol.

In the case of `CC(=O)c1ccccc1` [Substrate 1, acetophenone], the Conversion was 95^b %. Under “conversion of acetophenone by ADHF1”, the “yield of (R)-α-phenylethanol” value stood at 95%. For `O=C1CCCCCC1` [Cycloheptanone], the Conversion came to 51%. In the case of `O=C1CCCC1` [Cyclopentanone], the Conversion is on record as 53%.

Consider `O=C1CCCCC1` [Cyclohexanone], for which the Conversion is listed as 100%.
